Data reported in PMC6177617 (British Journal of Pharmacology, 2018).
Read-outs that look alike come from different tables or passages of the source.

Target: dopamine D2 receptor (Homo sapiens, UniProt P14416)
Format: binding
[1] = kPCA, room temperature, PPHT tracer, N = 2, n = 2

Sequence of dopamine D2 receptor (P14416 whole entry): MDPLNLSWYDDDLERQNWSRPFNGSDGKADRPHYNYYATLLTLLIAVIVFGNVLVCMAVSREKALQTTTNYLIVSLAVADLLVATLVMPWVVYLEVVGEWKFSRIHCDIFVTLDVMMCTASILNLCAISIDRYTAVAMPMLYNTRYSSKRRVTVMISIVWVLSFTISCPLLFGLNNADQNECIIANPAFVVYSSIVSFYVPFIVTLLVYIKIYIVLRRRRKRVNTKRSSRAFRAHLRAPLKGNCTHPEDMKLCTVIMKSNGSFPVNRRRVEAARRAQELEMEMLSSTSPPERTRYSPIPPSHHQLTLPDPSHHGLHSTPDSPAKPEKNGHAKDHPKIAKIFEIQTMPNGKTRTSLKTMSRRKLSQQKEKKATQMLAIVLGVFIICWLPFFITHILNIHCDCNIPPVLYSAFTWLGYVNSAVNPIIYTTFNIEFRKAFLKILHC

Row | kon [1/(M*s)] | SMILES | kon [1/(M*s)] [1]
1 | – | FC(F)(F)c1nnc(N2CCNCC2)cc1-c1ccccc1 [JNJ‐39269646] | 4.53E + 06 1/(M*s)
2 | – | Fc1ccc(CN2CCC(Nc3ccc(C(F)(F)F)nn3)CC2)cc1F [JNJ‐37822681] | 7.33E + 05 1/(M*s)
3 | 2.26E + 06 1/(M*s) | O=C(CCCN1CCC(O)(c2ccc(Br)cc2)CC1)c1ccc(F)cc1 [Bromperidol] | –
